From patent US8759535B2, “Substituted fused imidazole derivatives, pharmaceutical compositions, and methods of use thereof” (High Point Pharmaceuticals, LLC, priority 2010, dated 2014)
Counter-ions that a name gives are not always drawn.

Each molecule was assayed on HMOX1 (assay: HMOX1 Protein Assay (immunostaining of HO-1 in NHLF cells, GE InCell 1000)). Conditions: Homo sapiens, fold change above DMSO treated cells, 3 μM compound (asterisk), 16 h.
Assay type: cell-based
Method in brief: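 NHLF cells seeded overnight in FGM-2, then exposed to compound or DMSO vehicle for 16 h, fixed, and immunostained for HO-1 with Hoechst nuclear counterstain; imaged on InCell 1000. Values are fold change over DMSO-treated cells, generally at 5 μM (0.8% DMSO), with asterisked entries at 3 μM.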

Row | Structure (SMILES) | fold induction at 3 µM
1 | Cn1c(Nc2nc3ccc(C(F)(F)F)cc3s2)nc2cc(C(=O)NCC(=O)N3CCOCC3)ccc21 [Example 422, 1-Methyl-2-(6-trifluoromethyl-benzothiazol-2-ylamino)-1H-benzoimidazole-5-carboxylic acid (2-morpholin-4-yl-2-oxo-ethyl)-amide] | 25
2 | CN1CCN(C(=O)CNC(=O)c2ccc3c(c2)nc(Nc2nc4ccc(C(F)(F)F)cc4s2)n3C)CC1 [Example 427, 1-Methyl-2-(6-trifluoromethyl-benzothiazol-2-ylamino)-1H-benzoimidazole-5-carboxylic acid [2-(4-methyl-piperazin-1-yl)-2-oxo-ethyl]-amide] | 17
3 | Cn1c(Nc2nc3ccc(C(F)(F)F)cc3s2)nc2cc(C(=O)NCC(=O)N3CCC[C@@H](O)C3)ccc21 [Example 432, 1-Methyl-2-(6-trifluoromethyl-benzothiazol-2-ylamino)-1H-benzoimidazole-5-carboxylic acid [2-((R)-3-hydroxy-piperidin-1-yl)-2-oxo-ethyl]-amide] | 27.3
4 | Cn1c(Nc2nc3ccc(Cl)cc3s2)nc2cc(C(=O)NCC(=O)N3CCC[C@H](O)C3)ccc21 [Example 433, 2-(6-Chloro-benzothiazol-2-ylamino)-1-methyl-1H-benzoimidazole-5-carboxylic acid [2-((S)-3-hydroxy-piperidin-1-yl)-2-oxo-ethyl]-amide] | 29
5 | Cn1c(Nc2nc3ccc(C(F)(F)F)cc3s2)nc2cc(C(=O)NCC(=O)N3CCC[C@H](O)C3)ccc21 [Example 434, 1-Methyl-2-(6-trifluoromethyl-benzothiazol-2-ylamino)-1H-benzoimidazole-5-carboxylic acid [2-((S)-3-hydroxy-piperidin-1-yl)-2-oxo-ethyl]-amide] | 34.6
6 | Cn1c(Nc2nc3ccc(C(F)(F)F)cc3s2)nc2cc(C(=O)NCC(=O)N3CCC(O)CC3)ccc21 [Example 437, 1-Methyl-2-(6-trifluoromethyl-benzothiazol-2-ylamino)-1H-benzoimidazole-5-carboxylic acid [2-(4-hydroxy-piperidin-1-yl)-2-oxo-ethyl]-amide] | 47.1

Same assay, conditions: Homo sapiens, fold change above DMSO treated cells, 5 μM compound, 16 h

Row | Structure (SMILES) | fold induction at 5 µM
7 | CN[C@H]1CCN(C(=O)CNC(=O)c2ccc3c(c2)nc(Nc2nc4ccc(OC(F)(F)F)cc4s2)n3C)C1 [Example 414, 1-Methyl-2-(6-trifluoromethoxy-benzothiazol-2-ylamino)-1H-benzoimidazole-5-carboxylic acid [2-((S)-3-methylamino-pyrrolidin-1-yl)-2-oxo-ethyl]-amide hydrochloride] | 25.7
8 | CN(C)[C@@H]1CCN(C(=O)CNC(=O)c2ccc3c(c2)nc(Nc2nc4ccc(OC(F)(F)F)cc4s2)n3C)C1 [Example 415, 1-Methyl-2-(6-trifluoromethoxy-benzothiazol-2-ylamino)-1H-benzoimidazole-5-carboxylic acid [2-((R)-3-dimethylamino-pyrrolidin-1-yl)-2-oxo-ethyl]-amide] | 74.8
9 | CN(C)[C@H]1CCN(C(=O)CNC(=O)c2ccc3c(c2)nc(Nc2nc4ccc(OC(F)(F)F)cc4s2)n3C)C1 [Example 416, 1-Methyl-2-(6-trifluoromethoxy-benzothiazol-2-ylamino)-1H-benzoimidazole-5-carboxylic acid [2-((S)-3-dimethylamino-pyrrolidin-1-yl)-2-oxo-ethyl]-amide] | 96.6
10 | CN(C)[C@@H]1CCN(C(=O)CNC(=O)c2ccc3c(c2)nc(Nc2nc4ccc(Cl)cc4s2)n3C)C1 [Example 417, 2-(6-Chloro-benzothiazol-2-ylamino)-1-methyl-1H-benzoimidazole-5-carboxylic acid [2-((R)-3-dimethylamino-pyrrolidin-1-yl)-2-oxo-ethyl]-amide] | 62.8
11 | CN(C)[C@H]1CCN(C(=O)CNC(=O)c2ccc3c(c2)nc(Nc2nc4ccc(Cl)cc4s2)n3C)C1 [Example 418, 2-(6-Chloro-benzothiazol-2-ylamino)-1-methyl-1H-benzoimidazole-5-carboxylic acid [2-((S)-3-dimethylamino-pyrrolidin-1-yl)-2-oxo-ethyl]-amide] | 63.3
12 | CN(C)C(=O)[C@@H]1CCCN1C(=O)CNC(=O)c1ccc2c(c1)nc(Nc1nc3ccc(Cl)cc3s1)n2C [Example 419, 2-(6-Chloro-benzothiazol-2-ylamino)-1-methyl-1H-benzoimidazole-5-carboxylic acid [2-((S)-2-dimethylcarbamoyl-pyrrolidin-1-yl)-2-oxo-ethyl]-amide] | 28
13 | Cn1c(Nc2nc3ccc(OC(F)(F)F)cc3s2)nc2cc(C(=O)NCC(=O)N3CCOCC3)cnc21 [Example 420, 3-Methyl-2-(6-trifluoromethoxy-benzothiazol-2-ylamino)-3H-imidazo[4,5-b]pyridine-6-carboxylic acid (2-morpholin-4-yl-2-oxo-ethyl)-amide] | 33
14 | Cn1c(Nc2nc3ccc(Cl)cc3s2)nc2cc(C(=O)NCC(=O)N3CCOCC3)ccc21 [Example 421, 2-(6-Chloro-benzothiazol-2-ylamino)-1-methyl-1H-benzoimidazole-5-carboxylic acid (2-morpholin-4-yl-2-oxo-ethyl)-amide] | 32.2
15 | Cn1c(Nc2nc3ccc(Cl)cc3s2)nc2cc(C(=O)NCC(=O)N3CCSCC3)ccc21 [Example 423, 2-(6-Chloro-benzothiazol-2-ylamino)-1-methyl-1H-benzoimidazole-5-carboxylic acid (2-oxo-2-thiomorpholin-4-yl-ethyl)-amide] | 30.2
16 | Cn1c(Nc2nc3ccc(Cl)cc3s2)nc2cc(C(=O)NCC(=O)N3CCS(=O)(=O)CC3)ccc21 [Example 424, 2-(6-Chloro-benzothiazol-2-ylamino)-1-methyl-1H-benzoimidazole-5-carboxylic acid [2-(1,1-dioxo-thiomorpholin-4-yl)-2-oxo-ethyl]-amide] | 24.9
17 | Cn1c(Nc2nc3ccc(Cl)cc3s2)nc2cc(C(=O)NCC(=O)N3CCNCC3)ccc21 [Example 425, 2-(6-Chloro-benzothiazol-2-ylamino)-1-methyl-1H-benzoimidazole-5-carboxylic acid (2-oxo-2-piperazin-1-yl-ethyl)-amide hydrochloride] | 20.3
18 | CN1CCN(C(=O)CNC(=O)c2ccc3c(c2)nc(Nc2nc4ccc(Cl)cc4s2)n3C)CC1 [Example 426, 2-(6-Chloro-benzothiazol-2-ylamino)-1-methyl-1H-benzoimidazole-5-carboxylic acid [2-(4-methyl-piperazin-1-yl)-2-oxo-ethyl]-amide] | 25.1
19 | COCCn1c(Nc2nc3ccc(Cl)cc3s2)nc2cc(C(=O)NCC(=O)N3CCN(C)CC3)ccc21 [Example 428, 2-(6-Chloro-benzothiazol-2-ylamino)-1-(2-methoxy-ethyl)-1H-benzoimidazole-5-carboxylic acid [2-(4-methyl-piperazin-1-yl)-2-oxo-ethyl]-amide] | 24.4
20 | Cn1c(Nc2nc3ccc(Cl)cc3s2)nc2cc(C(=O)NCC(=O)N3CCN(S(C)(=O)=O)CC3)ccc21 [Example 429, 2-(6-Chloro-benzothiazol-2-ylamino)-1-methyl-1H-benzoimidazole-5-carboxylic acid [2-(4-methanesulfonyl-piperazin-1-yl)-2-oxo-ethyl]-amide] | 21.4
21 | CN(C)S(=O)(=O)N1CCN(C(=O)CNC(=O)c2ccc3c(c2)nc(Nc2nc4ccc(Cl)cc4s2)n3C)CC1 [Example 430, 2-(6-Chloro-benzothiazol-2-ylamino)-1-methyl-1H-benzoimidazole-5-carboxylic acid [2-(4-dimethylsulfamoyl-piperazin-1-yl)-2-oxoethyl]-amide] | 22.7
22 | Cn1c(Nc2nc3ccc(OC(F)(F)F)cc3s2)nc2cc(C(=O)NCC(=O)N3CCCC(O)C3)ccc21 (stereo not drawn) [Example 431, 1-Methyl-2-(6-trifluoromethoxy-benzothiazol-2-ylamino)-1H-benzoimidazole-5-carboxylic acid [2-(3-hydroxy-piperidin-1-yl)-2-oxo-ethyl]-amide] | 49.4
23 | Cn1c(Nc2nc3ccc(OC(F)(F)F)cc3s2)nc2cc(C(=O)NCC(=O)N3CCC(O)CC3)ccc21 [Example 435, 1-Methyl-2-(6-trifluoromethoxy-benzothiazol-2-ylamino)-1H-benzoimidazole-5-carboxylic acid [2-(4-hydroxy-piperidin-1-yl)-2-oxo-ethyl]-amide] | 30.2
24 | Cn1c(Nc2nc3ccc(Cl)cc3s2)nc2cc(C(=O)NCC(=O)N3CCC(O)CC3)ccc21 [Example 436, 2-(6-Chloro-benzothiazol-2-ylamino)-1-methyl-1H-benzoimidazole-5-carboxylic acid [2-(4-hydroxy-piperidin-1-yl)-2-oxo-ethyl]-amide] | 29.3
25 | COCCn1c(Nc2nc3ccc(Cl)cc3s2)nc2cc(C(=O)NCC(=O)N3CCC(O)CC3)ccc21 [Example 438, 2-(6-Chloro-benzothiazol-2-ylamino)-1-(2-methoxy-ethyl)-1H-benzoimidazole-5-carboxylic acid [2-(4-hydroxy-piperidin-1-yl)-2-oxo-ethyl]-amide] | 25.9
26 | Cn1c(Nc2nc3ccc(OC(F)(F)F)cc3s2)nc2cc(C(=O)NCC(=O)N3CCCCC3CO)ccc21 (stereo not drawn) [Example 439, 1-Methyl-2-(6-trifluoromethoxy-benzothiazol-2-ylamino)-1H-benzoimidazole-5-carboxylic acid [2-(2-hydroxymethyl-piperidin-1-yl)-2-oxo-ethyl]-amide] | 84.2
27 | Cn1c(Nc2nc3ccc(OC(F)(F)F)cc3s2)nc2cc(C(=O)NCC(=O)N3CCCC(CO)C3)ccc21 (stereo not drawn) [Example 440, 1-Methyl-2-(6-trifluoromethoxy-benzothiazol-2-ylamino)-1H-benzoimidazole-5-carboxylic acid [2-(3-hydroxymethyl-piperidin-1-yl)-2-oxo-ethyl]-amide] | 28.2
